Tests used:
Type in all cases: cell-based, human
Details in all cases: 50 ng/ml
CD19+ cells = experiment: Immune Cell Stimulation Assay Method (CD69 expression, flow cytometry), CD19+
Protocol: (§1) Each immunostimulation assay uses a Becton Dickinson FACScan flow cytometer to quantify immune cell activity. The specific protocol for measuring such activity utilizes freshly drawn human blood collected in sodium heparin to 200 μL. Echinacea extract is added in a desired concentration after being mixed with 50 μL of phosphate buffer. The blood and Echinacea mixture is vortexed and incubated at 37° C. for 5 hours to allow adequate time for immune cell stimulation.
(§2) Positive controls consist of PMA (50 ng/ml), PHA ([…]), or CD2/CD2R (5 μL/250 μL) and negative controls consist of DMSO (2% in RPMI), RPMI, and cyclosporin A (10 μg/ml). For staining, 20 μL of reagent cocktail (CD4FITC/CD69PE/CD3PerCP (expressed on the helper/inducer T-lymphocyte subset and is the primary receptor for HIV); CD8FITC/CD69PE/CD3PerCP (expressed on the human suppressor/cytotoxic T-lymphocytes and on a subset of natural killer lymphocytes); CD19FITC/CD69PE/CD45PerCP (expressed on B-lymphocytes); CD56FITC/CD69PE/CD45PerCP (expressed on NK lymphocytes), for examples) are used.
(§3) Following the cell stimulation period described above, solutions of fractions and constituents are compared quantitatively with the above-recited controls. […] The prepared samples are analyzed in the flow cytometer. […] Individual cell types are quantitated using appropriate stains and gating as known by those skilled in the art.

CD8+ immune cells = experiment: Immune Cell Stimulation Assay Method (CD69 expression, flow cytometry), CD8+
Protocol: as §1, §2, §3

CD56+ cells = experiment: Immune Cell Stimulation Assay Method (CD69 expression, flow cytometry), CD56+
Protocol: as §1, §2, §3

CD4+ immune cells = experiment: Immune Cell Stimulation Assay Method (CD69 expression, flow cytometry), CD4+
Protocol: as §1, §2
Following the cell stimulation period described above, solutions of fractions and constituents are compared quantitatively with the above-recited controls. Next 50 μL of the stimulated blood samples are added to each of the tubes containing the reagent cocktail, vortexed and incubated at room temperature for 30 min. in the dark. Then 450 μL of 1× FACS lysing solution is added to each tube which is vortexed gently and incubated in the dark at room temp. for 20 min. The prepared samples are analyzed in the flow cytometer. CD69 (CD stands for cluster determinant) is the first […] expressed by any of these cells following stimulation and is produced on the surface of T-, B- and NK-lymphocytes. […] Individual cell types are quantitated using appropriate stains and gating as known by those skilled in the art.

CCCCCCCCCCCCCC(=O)O[C@@H]1[C@@H](C)[C@@]2(O)[C@@H](C=C(CO)C[C@]3(O)C(=O)C(C)=C[C@@H]23)[C@@H]2C(C)(C)[C@]12OC(C)=O [PMA]
CD19+ stimulation, positive control (CD19+ cells; Table 7): 97.68% | CD19+ stimulation, positive control (CD19+ cells; Table 8): 98.820% | CD8+ stimulation, positive control (CD8+ immune cells; Table 7): 99.04% | CD8+ stimulation, positive control (CD8+ immune cells; Table 8): 98.320% | CD56+ stimulation, positive control (CD56+ cells; Table 7): 94.14% | CD56+ stimulation, positive control (CD56+ cells; Table 8): 94.940% | CD4+ stimulation, positive control (CD4+ immune cells; Table 2): 99.16% | CD4+ stimulation, positive control (CD4+ immune cells; Table 3): 99.16% | CD4+ stimulation, positive control (CD4+ immune cells; Table 4): 99.20% | CD4+ stimulation, positive control (CD4+ immune cells; Table 7): 99.42% | CD4+ stimulation, positive control (CD4+ immune cells; Table 8): 98.770%

Source: patent publication US20020028258A1, “Immunostimulant compositions and associated methods” (Pharmanex, LLC, priority 2000, published 2002)
